Legend:
E. coli 70S ribosomes [1] = assay: Direct equilibrium binding of BODIPY-CAM measured by fluorescence anisotropy; settings: BODIPY-CAM 4 nM, ribosomes 5 nM to 5 µM, 30 min; read-out: Apparent dissociation constant KDapp, direct equilibrium binding
Protocol: The apparent dissociation constant of BODIPY-CAM (KDapp = 3.5 ± 0.9 µM) was determined by its direct equilibrium binding to E. coli 70S ribosomes (Figure S1B). A solution of BODIPY-CAM (4 nM) in the buffer containing 20 mM HEPES-KOH (pH 7.5), 50 mM NH4Cl, 10 mM Mg(CH3COO)2, 4 mM β-mercaptoethanol, and 0.05% Tween-20 was mixed with ribosomes in the range of concentrations from 5 nM to 5 μM, incubated for 30 min, and the values of fluorescence anisotropy were measured.
Chen C.- W. et al. Supplementary Inform ation P age | 6of 10 […]
Fi g u re S1. Binding of BODIPY-CAM to E. coli 70S ribosomes measu re d b y f lu orescence an isot rop y.
(A) Chemical structure of fluorescent analog of chloramphenicol BODIPY-CAM. (B) Equilibrium binding isotherm of BODIPY-CAM to E. coli 70S ribosomes.Non -linear regression anal ysis of obt ained data yi elded an apparent dissociation constant of BO D IP Y -CAM ( KDapp = 3.5 ± 0.9 µM).
(1 picture or pasted object on this page, not shown here)

[2] = system: E. coli BW25113 ΔtolC pDualRep2 reporter strain; assay: In vivo dual-reporter (pDualrep2) assay on agar plate: Katushka2S / RFP induction and growth inhibition zone; assay type: cell-based; settings: overnight 37 °C; for Induction of fluorescent reporters (Katushka2S = ribosome stalling; RFP = DNA damage/SOS response): drops of DMSO solutions (CAM-C4-TPP 20 mM, C4-TPP 20 mM, CAM 2 mM, CHL 2 mM, ERY 6.8 mM, LEV 69 nM)
Source text: Since CAM-C4-TPP is a semi-synthetic analog of the PTC-targeting antibiotic CHL, we expected that, similar to CHL, CAM-C4-TPP would also bind and act upon the bacterial ribosome inhibiting protein synthesis. However, we could not rule out the possibility that the presence of the additional TPP group could alter the intracellular target of the CAM-C4-TPP molecule. To check whether protein synthesis remains the primary target of CAM-C4-TPP action in the bacterial cells, we used an E. coli-based in vivo reporter system that is designed for screening of inhibitors targeting either DNA replication or protein synthesis.
(§1) Figure 2 CAM-C4-TPP is a potent inhibitor of protein synthesis both in vivo and in vitro. (A) In vivo testing of CAM-C4-TPP activity using E. coli BW25113 ΔtolC pDualRep2 reporter strains. The induction of the red fluorescent protein (RFP) expression (green halo around the inhibition zone) is triggered by DNA-damage, while the induction of Katushka2S protein (red halo) occurs in response to ribosome stalling. Levofloxacin (LEV), erythromycin (ERY), and chloramphenicol (CHL) are used as controls. This image is an overlay of the two images from the independent detections of RFP (Cy3 mode) or Ktushka2S (Cy5 mode) by ChemiDoc MP (Bio-Rad) with RFP fluorescence shown in green pseudocolor and Katushka2S fluorescence shown in red pseudocolor. (B,C) Competition-binding assay to test the displacement of fluorescently labeled BODIPY-CAM (B) or BODIPY-ERY (C) analogs from the E. coli 70S ribosomes in the presence of increasing concentrations of CAM (open diamonds), CHL (blue squares), or CAM-C4-TPP (red circles) measured by fluorescence anisotropy. All reactions were repeated three times. Error bars represent standard deviation. ND, no displacement. The resulting values for apparent dissociation constants (KDapp) are shown on each plot. (D) Inhibition of protein synthesis by increasing concentrations of CHL (blue squares) or CAM-C4-TPP (red circles) in the in vitro cell-free transcription-translation coupled system. The relative enzymatic activity of in vitro synthesized firefly luciferase is shown. Error-bars represent standard deviations of the mean of three independent measurements. TEXT PRINTED IN THE PICTURE: (D) CHL: IC50, μM: 2.8±0.5 | (D) CAM-C4-TPP: IC50, μM: 0.9±0.2 | (B) CAM: KDApp, μM: 420±240 | (B) CHL: KDApp, μM: 2.6±1.5 | (B) CAM-C4-TPP: KDApp, μM: 0.6±0.4 | (C) CAM: KDApp, μM: ND | (C) CHL: KDApp, μM: 2.8±0.5 | (C) CAM-C4-TPP: KDApp, μM: 0.61±0.07
For the in vivo bioactivity test (Figure 2A), we used the reporter strain BW25113ΔtolC-pDualrep2 as described previously. Briefly, 1.5 µL of the solutions of CAM-C4-TPP (20 mM), C4-TPP (20 mM), CAM (2 mM), and 1 µL of the solutions of CHL (2 mM), erythromycin (ERY, 6.8 mM), and levofloxacin (LEV, 69 nM) in DMSO were applied onto the agar plate that already contained a lawn of the reporter strain. After overnight incubation at 37 °C, the plate was scanned by ChemiDoc (Bio-Rad, USA) using “Cy3-blot” mode for RFP fluorescence and “Cy5-blot” mode for Katushka2S fluorescence.

[3] = system: cell-free transcription-translation system based on the E. coli S30 extract; assay: In vitro cell-free transcription-translation inhibition assay, firefly luciferase synthesis; assay type: biochemical; settings: for IC50 / Concentration at which nearly complete inhibition of protein synthesis was observed: E. coli S30 extract; for IC50: 37 °C, 30 min, n=3; for Concentration at which nearly complete inhibition of protein synthesis was observed: firefly luciferase
Source text: as §1
To check whether the improved binding of CAM-C4-TPP to the ribosome correlates with stronger inhibition of translation, we tested its ability to interfere with in vitro protein synthesis. […] Thus, CAM-C4-TPP provides a promising foundation for future ribosome-targeting drug development.
In vitro assessment of inhibition of synthesis of firefly luciferase by the tested compounds (Figure 2D) was accomplished as described previously. Briefly, the in vitro transcribed firefly luciferase mRNA was translated using E. coli S30 Extract System for Linear Templates (Promega, USA). Reactions containing 100 ng of mRNA and […] 0.1 mM of D-luciferin from the Steady-Glo Luciferase Assay System (Promega) were preincubated for 5 min with different concentrations (0.5 µM, 1 µM, 5 µM, 10 µM, 30 µM, 50 µM, 100 µM) of the tested compounds and carried out in 5-µL aliquots at 37 °C for 30 min. The activity of in vitro synthesized luciferase was measured by VICTOR X5 Multilabel Plate Reader (Perkin Elmer, USA) every 30 s. Calculations of the IC50 values for the tested compounds were carried out using GraphPad Prism software.

E. coli 70S ribosomes [4] = assay: Competition-binding assay, displacement of BODIPY-ERY measured by fluorescence anisotropy; settings: BODIPY-ERY 16 nM, ribosomes 50 nM, 25 °C, pH 7.5, n=3; read-out: Apparent dissociation constant KDapp, displacement of BODIPY-ERY
Source text: (§2) Figure 2 CAM-C4-TPP is a potent inhibitor of protein synthesis both in vivo and in vitro. (A) In vivo testing of CAM-C4-TPP activity using E. coli BW25113 ΔtolC pDualRep2 reporter strains. The induction of the red fluorescent protein (RFP) expression (green halo around the inhibition zone) is triggered by DNA-damage, while the induction of Katushka2S protein (red halo) occurs in response to ribosome stalling. Levofloxacin (LEV), erythromycin (ERY), and chloramphenicol (CHL) are used as controls. This image is an overlay of the two images from the independent detections of RFP (Cy3 mode) or Ktushka2S (Cy5 mode) by ChemiDoc MP (Bio-Rad) with RFP fluorescence shown in green pseudocolor and Katushka2S fluorescence shown in red pseudocolor. (B,C) Competition-binding assay to test the displacement of fluorescently labeled BODIPY-CAM (B) or BODIPY-ERY (C) analogs from the E. coli 70S ribosomes in the presence of increasing concentrations of CAM (open diamonds), CHL (blue squares), or CAM-C4-TPP (red circles) measured by fluorescence anisotropy. All reactions were repeated three times. Error bars represent standard deviation. ND, no displacement. […]
(§3) Binding affinities of CHL analog CAM-C4-TPP, as well as other tested compounds, for the E. coli ribosome (Figure 2B,C) were analyzed by a competition-binding assay using fluorescently labeled BODIPY-CAM or BODIPY-ERY as described before. […]

[5] = system: ribosome stalling on rst1 and rst2 mRNAs; assay: Toe-printing (primer extension inhibition) on rst1 and rst2 mRNAs in a cell-free translation system; assay type: biochemical; settings: 30 µM compound
Source text: The inhibition of protein synthesis by the PTC-targeting antibiotics depends on the amino-acid sequence of the nascent polypeptide chain and the identity of the incoming aminoacyl-tRNA in the A site of the ribosome. For example, CHL arrests translation only when alanine, and to a lesser extent, serine or threonine appear in the penultimate position (E site) of the growing polypeptide chain and only if there is no glycyl-tRNA in the A site of the ribosome. […] This method allows unambiguous identification of the drug-induced ribosome stalling site along the mRNA with a single nucleotide precision. This technique also allows for the determination of the context-specificity of drug action. A large set of ribosome-targeting antibiotics has been previously tested by toe-printing using rst1 or rst2 mRNAs as templates, because their sequences contain codons for almost all proteinogenic amino acids. Therefore, in order to be able to directly compare our results for CAM-C4-TPP with those for other antibiotics, we have chosen exactly the same experimental system.
Nevertheless, in the presence of CAM-C4-TPP, a fraction of ribosomes manages to escape the start codon, continues translation, and stalls at later codons within the ORF (Figure 6A,B, lanes 3 and 6).
Figure 6 CAM-C4-TPP is capable of arresting translation at the start codon. […]

E. coli 70S ribosomes [6] = assay: Competition-binding assay, displacement of BODIPY-CAM measured by fluorescence anisotropy; settings: for Kd: BODIPY-CAM 30 nM, ribosomes 2.9 µM, 25 °C, pH 7.5, n=3, read-out: Apparent dissociation constant KDapp, displacement of BODIPY-CAM
Source text: as §2, with “anisotropy.” for “anisotropy. All reactions were repeated three times. Error bars represent standard deviation. ND, no displacement.”
The amphenicol moieties of CAM-C4-TPP, its parent CHL, and the fluorescent derivative BODIPY-CAM are expected to have identical ribosome binding sites and, therefore, these compounds are expected to compete with each other for binding to the ribosome. […] The apparent dissociation constants KDapp of CHL determined from the displacement of BODIPY-CAM (2.6 ± 1.5 µM) or BODIPY-ERY (2.8 ± 0.5 µM) are consistent with each other and with the previously published data, including data determined by direct [^14C]-CHL binding (2.3 µM [30]). […]
as §3
Solutions of CHL, CAM, CAM-C4-TPP, or C4-TPP in different concentration ranges were added to the pre-formed ribosome/BODIPY-CAM or ribosome/BODIPY-ERY complexes. The mixtures were incubated for 2 h until equilibrium was reached and the values of fluorescence anisotropy were measured. […]

ribosome = target: ribosome; parameters: method as in PMID 4563072; settings: read-out: Dissociation constant by direct [14C]-CHL binding; cited from earlier work

Compound | Induction of fluorescent reporters (Katushka2S = ribosome stalling; RFP = DNA damage/SOS response) [2] | IC50 [3] | Concentration at which nearly complete inhibition of protein synthesis was observed [3] | Kd (E. coli 70S ribosomes [4]) | Drug-induced ribosome stalling sites (toe-printing) [5] | Kd (E. coli 70S ribosomes [6]) | further results
CC1=CC(C)=[N+]2C1=Cc1ccc(CCCCC(=O)NC(CO)C(O)c3ccc([N+](=O)[O-])cc3)n1[B-]2(F)F (centres unmarked) [BODIPY-CAM] |  |  |  |  |  |  | Kd (E. coli 70S ribosomes [1]): 3.5 ± 0.9 µM
O=C(O)CCCC[P+](c1ccccc1)(c1ccccc1)c1ccccc1.[Br-] [C4-TPP, (4-Carboxybutyl)triphenyl-phosphonium bromide] | does not induce any of the two reporters |  |  |  |  |  | Bacterial cell growth inhibition (inhibition zone) ([2]; 1.5 µL of C4-TPP 20 mM or CAM 2 mM): inhibits bacterial cell growth
O=C(CCCC[P+](c1ccccc1)(c1ccccc1)c1ccccc1)N[C@H](CO)[C@H](O)c1ccc([N+](=O)[O-])cc1 [CAM-C4-TPP] | the expression of the fluorescent protein Katushka2S, but not of RFP, was strongly activated | 0.9 ± 0.2 µM | ~ 10 µM | 0.61 ± 0.07 µM | causes a significant portion of the ribosomes to stall at the initiator codons | 0.6 ± 0.4 µM | Fold better IC50 compared to CHL ([3]; in vitro translation of firefly luciferase): more than 3 fold; Fold higher affinity for the ribosome compared to parent CHL (E. coli 70S ribosomes [6]; both displacement assays (BODIPY-CAM and BODIPY-ERY)): ~ 5 fold
O=C(N[C@H](CO)[C@H](O)c1ccc([N+](=O)[O-])cc1)C(Cl)Cl [CHL, chloramphenicol] | induce expression of far-red fluorescent protein reporter Katushka2S | 2.8 ± 0.5 µM | ~ 10 µM | 2.8 ± 0.5 µM | predominant ribosome stalling when the 6th serine (Ser6) or 4th alanine (Ala4) residues appeared in the penultimate position | 2.6 ± 1.5 µM | Kd (ribosome): 2.3 µM
CC[C@H]1OC(=O)[C@H](C)[C@@H](O[C@H]2C[C@@](C)(OC)[C@@H](O)[C@H](C)O2)[C@H](C)[C@@H](O[C@@H]2O[C@H](C)C[C@H](N(C)C)[C@H]2O)[C@](C)(O)C[C@@H](C)C(=O)[C@H](C)[C@@H](O)[C@]1(C)O [erythromycin] | induce expression of far-red fluorescent protein reporter Katushka2S |  |  |  |  |  | 
C[C@H]1COc2c(N3CCN(C)CC3)c(F)cc3c(=O)c(C(=O)O)cn1c23 [levofloxacin] | induce expression of Red Fluorescent Protein (RFP) reporter |  |  |  |  |  | 
